Assay results published in patent US9254251B2, “Benzoic acid amide compound” (AMOREPACIFIC CORPORATION, priority 2011, dated 2016).
pIC50: −log10 of the molar value.

How the values were obtained:
[1] = system: B16F10 melanoma cells; experiment: Effect of reducing melanin production in melanocytes (Dooley's method); assay type: cell-based; conditions: B16-F10, 120 h; Mouse-derived B16F10 melanoma cells; melanin extracted after 5 days, absorbance at 405 nm; read-out: IC50 (concentration required to reduce melanin production in melanocytes to half)
Protocol: The effect of reducing melanin production of the benzamide derivative compounds prepared in Examples in melanocytes was measured according to the Dooley's method. Mouse-derived B16F10 melanoma cells acquired from the Korean Cell Line Bank were used. DMEM (Cat No. 11995), FBS (Cat No. 16000-044), and antibiotic and antifungal agents (Cat No. 15240-062) necessary for cell culturing were purchased from Invitrogen (GIBCO). The cells were cultured under the condition of 37° C. and 5% CO2. The cultured B16F10 cells were detached using 0.05% trypsin-EDTA and seeded onto a 48-well plate with the same cell number (1×10^4 cells/well). From the next day, the culture medium was replaced with one containing 10 ppm of the compound of Examples for three consecutive days. Kojic acid and rucinol were used as positive control. After 5 days, melanin was extracted from the cells by treating with 1 N NaOH at 60° C. for 2 hours, which was quantitated by measuring absorbance at 405 nm.

[2] = biological target: mushroom tyrosinase; experiment: Effect of inhibiting mushroom tyrosinase activity (method of Vanni, et al.); assay type: biochemical; conditions: read-out: IC50 (concentration required to inhibit tyrosinase activity to 50%); mushroom tyrosinase 10 units, tyrosine substrate, 37° C. for 10 minutes, pH 6.8, absorbance at 480 nm
Protocol: The effect of inhibiting mushroom tyrosinase activity of the benzamide derivative compounds of Examples was measured according to the method of Vanni, et al. Specifically, 49.5 μL of 0.1 M potassium phosphate buffer (pH 6.8), 45 μL of distilled water (DW), 0.5 μL (10 units) of mushroom tyrosinase (SIGMAT-7755) and 5 μL of the benzamide derivative compound of Examples were mixed and reacted at 37° C. for 10 minutes by mixing with 50 μL of 0.3 mg/mL tyrosine aqueous solution in a 96-well plate (total volume: 150 μL).

Row | pIC50 [1] | pIC50 [2] | SMILES
1 | 3.52 | – | O=c1cc(CO)occ1O [Kojic acid, reference compound]
2 | 5.92 | 5.96 | O=C(NCc1ccc(O)cc1O)c1cc(C23CC4CC(CC(C4)C2)C3)c(O)cc1O [Example 8, 5-adamantan-1-yl-N-(2,4-dihydroxybenzyl)-2,4-dihydroxybenzamide]
3 | 5.52 | – | O=C(NCCc1ccc(O)c(O)c1)c1ccc(O)c(C23CC4CC(CC(C4)C2)C3)c1 [Example 13, 3-adamantan-1-yl-N-[2-(3,4-dihydroxyphenyl)-ethyl]-4-hydroxybenzamide]
4 | – | 6.05 | O=C(NCc1ccc(O)cc1O)c1ccc(O)c(C23CC4CC(CC(C4)C2)C3)c1 [Example 17, 3-adamantan-1-yl-N-(2,4-dihydroxybenzyl)-4-hydroxybenzamide]
5 | 5.96 | – | O=C(NCCc1ccc(O)cc1)c1cc(C23CC4CC(CC(C4)C2)C3)c(O)cc1O [Example 5, 5-adamantan-1-yl-2,4-dihydroxy-N-[2-(4-hydroxyphenyl)-ethyl]benzamide]
6 | – | 5.85 | COc1ccc(C(=O)NCc2ccc(O)cc2O)cc1C12CC3CC(CC(C3)C1)C2 [Example 18, 3-adamantan-1-yl-N-(2,4-dihydroxybenzyl)-4-methoxybenzamide]
7 | 5.00 | 5.89 | CCCCc1ccc(O)cc1O [Rucinol, reference compound]
8 | 5.96 | 6.05 | COc1cc(OC)c(C23CC4CC(CC(C4)C2)C3)cc1C(=O)NCc1ccc(O)cc1O [Example 10, 5-adamantan-1-yl-N-(2,4-dihydroxybenzyl)-2,4-dimethoxybenzamide]
9 | 5.70 | – | COc1cc(CNC(=O)c2cc(C34CC5CC(CC(C5)C3)C4)c(O)cc2O)cc(OC)c1 [Example 21, 5-adamantan-1-yl-N-(3,5-dimethoxybenzyl)-2,4-dihydroxybenzamide]
10 | 5.54 | – | O=C(NCc1cc(O)ccc1O)c1cc(C23CC4CC(CC(C4)C2)C3)c(O)cc1O [Example 20, 5-adamantan-1-yl-N-(2,5-dihydroxybenzyl)-2,4-dihydroxybenzamide]
11 | 5.72 | – | COc1ccc(C(=O)NCc2ccc(O)c(O)c2)cc1C12CC3CC(CC(C3)C1)C2 [Example 12, 3-adamantan-1-yl-N-(3,4-dihydroxybenzyl)-4-methoxybenzamide]
12 | 5.92 | – | O=C(NCCc1ccc(O)c(O)c1)c1cc(C23CC4CC(CC(C4)C2)C3)c(O)cc1O [Example 1, 5-adamantan-1-yl-N-[2-(3,4-dihydroxyphenyl)-ethyl]-2,4-dihydroxybenzamide]
13 | 5.74 | 6.10 | COc1cc(O)c(C(=O)NCc2ccc(O)cc2O)cc1C12CC3CC(CC(C3)C1)C2 [Example 9, 5-adamantan-1-yl-N-(2,4-dihydroxybenzyl)-2-hydroxy-4-methoxybenzamide]
